In US20030215498A1, “Rapidly disintegrating comressed tablets comprising biologically active compounds” (priority 2002, published 2003):

Assay: Dissolution testing of acetaminophen particles (USP XXIII, Apparatus 2, paddle)
Format: physicochemical
Conditions: 900 ml water, 37° C., USP Apparatus 2, paddle 50 rpm, amount equivalent to 500 mg acetaminophen, n = 6
Description: Dissolution testing of the acetaminophen particles was carried out using USP XXIII “Acetaminophen capsules” and “Dissolution '711”, which are incorporated herein by reference. The method was adapted to use a relevant quantity of powder, i.e. an amount equivalent to 500 mg of acetaminophen in the dissolution bowl. This quantity represents a standard amount of […] in marketed U.S.A. over-the-counter (OTC) products. The operating conditions included 900 ml of water at 37° C. in a USP Apparatus 2 with paddle speed set at 50 rpm. FIG. 1 presents the dissolution-curves of acetaminophen and 4.6% lipid-based coated acetaminophen, i.e. 4.6% coating and 95.4% acetaminophen.

Dissolution % (5 min): 66.3%
Dissolution % (10 min): 90.8%
Dissolution % (15 min): 95.7%
Dissolution % (20 min): 97.1%
Dissolution % (30 min): 97.5%
Dissolution % (45 min): 97.7%
Dissolution % (60 min): 97.7%
SMILES: CC(=O)Nc1ccc(O)cc1 [100% Acetaminophen, Acetaminophen]
